Reference: PMC11099041, “Tissue distribution and retention drives efficacy of rapidly clearing VHL-based PROTACs” (Communications Medicine, 2024)
Read-outs that look alike come from different tables or passages of the source.

Assay: Mouse pharmacokinetics in CD-1 mice (blood, kidney, liver, lung)
Assay type: in vivo
Settings: for Tmax: mouse, dose = c0, matrix = c1 of the line
Description: For the PK study, a total of 42 male CD-1 mice weighing ~20-35 g were acquired from Lingchang/Vital River Laboratory Animal Co., Ltd. (Shanghai/Beijing, P.R. China) and divided into 2 treatment groups. […] was dosed with one low dose (1 mg/kg) and one high dose group (20 mg/kg). For the low-dose groups, nine animals were required for organ quantification with termination at 24 hours. For the high-dose groups, 12 animals were required for organ quantification with termination at 48 hours. The animal was administered either 1 mg/kg or 20 mg/kg of formulation solution (10% HP-β-CD in acetate buffer at pH 4.0) by IV bolus through the left lateral tail vein injection. […] Blood samples were placed on wet ice, mixed, then frozen and stored in a freezer set to -60 °C or lower until analysis. After the blood samples were collected at the terminal time points, the animals were sacrificed, and the liver, lung and kidney were harvested. The tissues were rinsed in cold water and then blotted on filter papers, weighed and homogenized using pre-cooled water at the ratio of 1:4. The tissue homogenate samples were kept at -70 °C until analysis. […] Working standard solutions were spiked into 25 μL of blank matrix on the sample plate. […] The supernatant (20 μL) was transferred into the MS injection plate, then diluted with water before injection for LC-MS/MS analysis. The concentrations of […] were quantified by an LC-MS/MS method. The LC-MS/MS system was a Waters Acquity UPLC System (Milford, MA) coupled to a Sciex Triple Quad 6500 Plus mass spectrometer (AB Sciex, Foster City, CA). The aqueous mobile phase for the analysis was 0.1% formic acid and 2 mM ammonium formate in water/ACN (v:v, 95:5) (A), and the organic mobile phase was 0.1% formic acid and 2 mM ammonium formate in ACN/water (v:v, 95:5) (B). […] Column temperature was set at 50 °C. […] The flow rate was set at 0.7 mL/min. […] The lower limit of quantitation in all matrices was 5.1 ng/mL. The mean time concentration profile was generated for each group, and an overall AUC was then calculated with these sparse samples of rats and mice. […] The following parameters were estimated whenever possible: C0, Back-extrapolated concentration at time 0; Cmax, Maximum observed concentration; Tmax, Time of maximum observed concentration; AUC0-t, Area under the concentration-time curve from hour 0 to the last measurable concentration, estimated by the linear trapezoidal rule; AUC0-336, Area under the concentration-time curve from hour 0 to hour 336, estimated by the linear trapezoidal rule; DN AUC0-336, Dose normalized AUC0-336, calculated as AUC0-336/dose level; […] AUC0-∞ = AUC0-t + Ct/λz, where Ct is the last measurable concentration and λz is the elimination rate constant; t1/2, Elimination half-life, determined by ln(2)/λz; CL, Clearance, calculated as dose/AUC0-inf; Vd, Volume of distribution based on the terminal phase, calculated as: dose/(λz × AUC0-∞) Nominal doses and sampling times were used. […] Embedded zeros were excluded from kinetic analysis.

[1] = male, CD-1, mouse, in vivo, 1 mg/kg, Kidney, 1 mg/kg IV, individual animals, read-out: Concentration (µM) from 1 mg/kg Dosing Kidney
[2] = male, CD-1, mouse, in vivo, 1 mg/kg, Kidney, 1 mg/kg IV, mean, read-out: Concentration (µM) from 1 mg/kg Dosing Kidney
[3] = male, CD-1, mouse, in vivo, 1 mg/kg, Liver, 1 mg/kg IV, individual animals, read-out: Concentration (µM) from 1 mg/kg Dosing Liver
[4] = male, CD-1, mouse, in vivo, 1 mg/kg, Liver, 1 mg/kg IV, mean, read-out: Concentration (µM) from 1 mg/kg Dosing Liver
[5] = male, CD-1, mouse, in vivo, 1 mg/kg, Lung, 1 mg/kg IV, individual animals, read-out: Concentration (µM) from 1 mg/kg Dosing Lung
[6] = male, CD-1, mouse, in vivo, 1 mg/kg, Lung, 1 mg/kg IV, mean, read-out: Concentration (µM) from 1 mg/kg Dosing Lung
[7] = male, CD-1, mouse, in vivo, 20 mg/kg, Blood, 20 mg/kg IV, individual animals, read-out: Concentration (µM) from 20 mg/kg Dosing Blood
[8] = male, CD-1, mouse, in vivo, 20 mg/kg, Blood, 20 mg/kg IV, mean, read-out: Concentration (µM) from 20 mg/kg Dosing Blood
[9] = male, CD-1, mouse, in vivo, 20 mg/kg, Kidney, 20 mg/kg IV, individual animals, read-out: Concentration (µM) from 20 mg/kg Dosing Kidney
[10] = male, CD-1, mouse, in vivo, 20 mg/kg, Kidney, 20 mg/kg IV, mean, read-out: Concentration (µM) from 20 mg/kg Dosing Kidney
[11] = male, CD-1, mouse, in vivo, 20 mg/kg, Liver, 20 mg/kg IV, mean, read-out: Concentration (µM) from 20 mg/kg Dosing Liver
[12] = male, CD-1, mouse, in vivo, 20 mg/kg, Lung, 20 mg/kg IV, individual animals, read-out: Concentration (µM) from 20 mg/kg Dosing Lung
[13] = male, CD-1, mouse, in vivo, 20 mg/kg, Lung, 20 mg/kg IV, mean, read-out: Concentration (µM) from 20 mg/kg Dosing Lung
[14] = male, CD-1, mouse, kidney, intravenous, 20 mg/kg, Kidney, 20 mg/kg IV, individual animals, read-out: Concentration (µM) from 20 mg/kg Dosing Kidney
[15] = male, CD-1, mouse, kidney, intravenous, 20 mg/kg, Kidney, 20 mg/kg IV, mean, read-out: Concentration (µM) from 20 mg/kg Dosing Kidney
[16] = male, CD-1, mouse, liver, intravenous, 20 mg/kg, Liver, 20 mg/kg IV, mean, read-out: Concentration (µM) from 20 mg/kg Dosing Liver
[17] = male, CD-1, mouse, lung, intravenous, 20 mg/kg, Lung, 20 mg/kg IV, mean, read-out: Concentration (µM) from 20 mg/kg Dosing Lung

## Cc1ncsc1-c1ccc(C(C)NC(=O)C2CC(O)CN2C(=O)C(c2cc(N3CCC(CN4CCC(OC5CC(Oc6cc(N7C8CCC7CN(c7cc(-c9ccccc9O)nnc7N)C8)ccn6)C5)CC4)CC3)no2)C(C)C)cc1 (centres unmarked) [A947]
male, CD-1, mouse, in vivo, 1 mg/kg, Blood, 1 mg/kg IV, mean, read-out: Concentration (µM) from 1 mg/kg Dosing Blood
  concentration at 4 h: 0.005 µM
[1]
  concentration at 4 h: 0.753 µM
  concentration at 8 h: 0.282 µM
  concentration at 24 h: 0.019 µM
[2]
  concentration at 4 h: 0.561 µM
  concentration at 8 h: 0.32 µM
  concentration at 24 h: 0.023 µM
[3]
  concentration at 4 h: 0.071 µM
  concentration at 8 h: 0.057 µM
[4]
  concentration at 4 h: 0.079 µM
  concentration at 8 h: 0.045 µM
  concentration at 24 h: 0.006 µM
male, CD-1, mouse, in vivo, 1 mg/kg, Liver, 1 mg/kg IV, individual animals, BLOQ <5.1 ng/mL, read-out: Concentration (µM) from 1 mg/kg Dosing Liver
  concentration at 24 h: 0.006 µM
[5]
  concentration at 4 h: 0.098 µM
  concentration at 8 h: 0.048 µM
  concentration at 24 h: 0.014 µM
[6]
  concentration at 4 h: 0.094 µM
  concentration at 8 h: 0.062 µM
  concentration at 24 h: 0.014 µM
[7]
  concentration at 0.083 h: 13.3 µM
  concentration at 0.25 h: 4.28 µM
  concentration at 0.5 h: 2.54 µM
  concentration at 1 h: 0.951 µM
  concentration at 2 h: 0.294 µM
  concentration at 8 h: 0.048 µM
[8]
  concentration at 0.083 h: 11.1 µM
  concentration at 0.25 h: 3.65 µM
  concentration at 0.5 h: 1.93 µM
  concentration at 1 h: 0.847 µM
  concentration at 2 h: 0.252 µM
  concentration at 4 h: 0.154 µM
  concentration at 8 h: 0.047 µM
[9]
  concentration at 4 h: 16.9 µM
  concentration at 8 h: 6.14 µM
[10]
  concentration at 4 h: 14 µM
  concentration at 8 h: 8.43 µM
[11]
  concentration at 4 h: 48.4 µM
  concentration at 8 h: 19.2 µM
male, CD-1, mouse, in vivo, 20 mg/kg, Liver, 20 mg/kg IV, individual animals, read-out: Concentration (µM) from 20 mg/kg Dosing Liver
  concentration at 8 h: 15.1 µM
[12]
  concentration at 4 h: 5.1 µM
  concentration at 8 h: 1.59 µM
[13]
  concentration at 4 h: 5.75 µM
  concentration at 8 h: 2.31 µM
[14]
  concentration at 24 h: 0.28 µM
  concentration at 48 h: 0.11 µM
[15]
  concentration at 24 h: 0.361 µM
  concentration at 48 h: 0.086 µM
male, CD-1, mouse, kidney, intravenous, 20 mg/kg, for the 2 dose levels (1, 20 mg/kg), read-out: Tissue-to-blood AUC ratio, kidney
  Kp: 160 to 243
male, CD-1, mouse, liver, intravenous, 20 mg/kg, Liver, 20 mg/kg IV, individual animals, read-out: Concentration (µM) from 20 mg/kg Dosing Liver
  concentration at 24 h: 14.3 µM
[16]
  concentration at 24 h: 10.8 µM
  concentration at 48 h: 1.9 µM
male, CD-1, mouse, liver, intravenous, for the 2 dose levels, read-out: Tissue-to-blood AUC ratio, liver
  Kp: 50 to 127
[17]
  concentration at 24 h: 0.602 µM
  concentration at 48 h: 0.658 µM
male, CD-1, mouse, lung, intravenous, for the 2 dose levels, read-out: Tissue-to-blood AUC ratio, lung
  Kp: 26 to 50
male, CD-1, mouse, whole blood, iv, CD-1 mice IV, blood, dose = c0
  clearance: 15 to 20 mL/min/kg
male, blood, kidney, liver, lung (per row, column Matrix), CD-1 mice IV
  Tmax: 0.083 h
male, kidney, liver, lung, CD-1 mice IV
  Tmax: 4 h
Mice IV 1 and 20 mg/kg, within initial 4 hours
  Initial decrease of concentration in blood: > 90%
